Several values for one entry are separate records, joined by “and”; a condition that tells them apart may be missing. Equal values may be shown once. Read-outs that look alike come from different tables or passages of the source.
Experiments:
[1] = tested on: PDGF-stimulated PDGFR tyrosine phosphorylation; assay: Inhibition of PDGF-stimulated PDGFR tyrosine phosphorylation in NIH 3T3 cells (anti-phosphotyrosine Western blot); type: cell-based
Experimental: Starved NIH 3T3 cells are pretreated with various growth factor binding agents (0-100 μM) for 5 min before stimulation with PDGF (10 ng/mL) for 10 min. The cells are then harvested and lysed, and the proteins from the lysates separated by SDS-PAGE and immunoblotted with an anti-phosphotyrosine antibody (4G10: Upstate Biotechnology, Lake Placid, N.Y.). The phosphotyrosine PDGF receptor bands are scanned, and the concentrations of growth factor binding molecules that inhibited the ability of PDGF to stimulate PDGFR tyrosine phosphorylation by 50% are determined.
(§1) Starved NIII 3T3 cells (PDGF-BB and PDGF-AA), NIH 3T3 cells overexpressing either EGFR (EGF) or Flk-1 (VEGF) are pre-treated with the indicated concentrations of GFB-111 for 5 minutes before 10 minutes of stimulation with PDGF-BB (10 ng/ml), PDGF-AA (10 ng/ml), EGF (100 ng/ml) and VEGF (50 ng/ml). Cell lysates are run on SDS-PAGE gels, then transferred to nitrocellulose and Western blotted with anti-phosphotyrosine (4G 10) or anti-phosphorylated Erk1/Erk2 (New England Biolabs).
A novel series of protein surface binding agents are prepared that bind PDGF and disrupt its signaling function. The molecules are composed of a central calix[4] arene scaffold to which is attached four peptide loop domains (FIG. 1). The peptide loop component is based on a cyclic hexapeptide in which two residues are replaced by a 3-aminomethylbenzoate dipeptide mimetic containing a 5-amino substituent for attachment to the scaffold. The resulting molecules (as shown in Table 1) contain a functionalized and variable surface approximately 500 Å^2 in area. Several peptide loop sequences are synthesized (Table 1) to provide molecular surfaces with negatively and positively charged as well as hydrophobic regions designed to bind to complementary areas on the target growth factor. To identify PDGF binding molecules from this library, a cell-based screening assay is developed with NIH 3T3 cells to detect molecules capable of blocking PDGF-BB-induced tyrosine autophosphorylation of the PDGF receptor. The ability of the identified molecules to bind PDGF-BB and inhibit interaction with its receptor is then confirmed biochemically. Starved NIH 3T3 cells are pretreated for 5 min with the synthetic molecules prior to stimulation with PDGF for 10 min. The effects of the molecules on PDGF-stimulated receptor tyrosine phosphorylation are determined by the antiphosphotyrosine Western blotting as described in Table 1. […] GFB-111 has four-fold symmetry containing 4 identical peptide loops with negative and hydrophobic residues, GlyAspGlyTyr (GDGY) (SEQ ID NO. 6), that are designed to be complementary to the PDGF surface involved in binding to PDGFR. The area of PDGF-BB that binds PDGFR is composed primarily of positive and hydrophobic residues.
Starved NIH 3T3 cells are pretreated with the various GFBs (0-100 μM) for 5 min. prior to stimulation with PDGF (10 ng/ml) for 10 min. The cells are then harvested lysed and the proteins from the lysates are separated by SDS-PAGE and immunoblotted with an anti-phosphotyrosine antibody (4G10, Upstate Biotechnology, Lake Placid, N.Y.). The phosphotyrosine PDGF receptor bands are scanned and the concentrations of GFBs that inhibit the ability of PDGF to stimulate PDGFR tyrosine phosphorylation by 50% are determined. Data for each compound is representative of at least two independent experiments. FIG. 1 illustrates the structure of growth factor binders. GFBs are synthesized as described by Park, H. D. et al., Protein surface recognition by synthetic receptors: A route to novel sub-micromolar inhibitors for chymotrypsin. J. Am. Chem. Soc. 121, 8-13 (1999); and Hamuro, Y. et al., A calixarene with four peptide loops: An antibody mimic for recognition of protein surfaces. Angew. Chemie Int. Ed. Engl. 36, 2680-2683 (1997), each herein incorporated by reference in its respective entirety.

[2] = tested on: PDGF-stimulated Erk1/Erk2 activation; assay: Inhibition of PDGF-stimulated activation of MAPK Erk1/Erk2 (p44/p42) in NIH 3T3 cells; type: cell-based; conditions: for Inhibition of PDGF-stimulated MAPKinase activation: FIG. 13
Experimental: as §1
(§2) In other experiments, starved NIH 3T3 cells (PDGF-AA, PDGF-BB, aFGF, bFGF), NIH 3T3 cells overexpressing EGFR. IGF-1R or Flk-1 and the human breast carcinoma SkBr3 that overexpresses ErbB2 (HRGβ) are pretreated with GFB-111 (100 μM) for 5 min before 10 min stimulation with the indicated growth factors at the concentrations shown above and aFGF (10 ng/ml), bFGF (50 ng/ml), IGF-1 (50 ng/ml) and HRGβ (10 ng/ml). Cell lysates are then immunoblotted with anti-phospho Erk1/Erk2 as described above.

[3] = tested on: VEGF-stimulated MAP kinase activation; assay: Inhibition of VEGF-stimulated MAP kinase (p42/p44, Erk2/Erk1) activation in Flk-1/3T3 cells; type: cell-based; conditions: for IC50: Flk-1/3T3, VEGF stimulated
Experimental: as §1, §2
In order to identify molecules that would bind vascular endothelial growth factor (VEGF), Flk-1/3T3 cell-based assay is used that relies on VEGF-stimulation of its receptor, Flk-1, tyrosine phosphorylation and subsequent MAP-kinase activation. The assay used herein identical to that used for PDGF, except that NIH 3T3 cells that overexpress Flk-1 are used. GFB-116, which has four identical loops with the sequence GKGK (SEQ ID NO. 10) is shown to be very potent and selective toward blocking the ability of VEGF to stimulate Flk-1 tyrosine phosphorylation and subsequent MAP-kinase activation as measured by phospho erk-1 and erk-2 also referred to in the Table as p42 and p44 (Table 4A). A preferred embodiment of the invention is a compound that binds to a vascular endothelial growth factor, of the general structure III (above) in which R is n-butyl, n-propyl, or benzyl, and X comprise covalently attached identical cyclic peptide loops wherein R1, R2, R3, and R4 are each amino acid side chains, as broadly defined above, that define a tetrapeptide sequence, wherein said tetrapeptide is covalently attached at the amino and carboxy termini of said tetrapeptide to 3-aminomethyl-5-aminobenzamide linking group, and wherein said tetrapeptide sequence is GKGK (SEQ ID NO. 10), GDGY (SEQ ID NO. 6), or functionally related derivatives thereof.

[4] = tested on: IGF-1 stimulated MAP kinase activation; assay: Inhibition of IGF-1 stimulated MAP kinase (p42/p44) activation in IGFR/3T3 cells; type: cell-based
Experimental: as §2
The ability of the GFB library to block the ability of IGF-1 to stimulate the IFG-1 R tyrosine phosphorylation and MAP kinase activation is evaluated using the cell assay described above with IGF-1R/3T3 cells as target cell. […] A preferred embodiment of the invention is a compound that binds to an insulin-like growth factor-1, of the general structure III, wherein R is n-butyl, n-propyl, or benzyl, and X1, X2, X3, and X4 optionally comprise identical cyclic peptide loops of the general structure II, and wherein R1, R2, R3, and R4 are each amino acid side chains that define a tetrapeptide sequence, wherein said tetrapeptide is covalently attached at the amino and carboxy termini of said tetrapeptide to a 3-aminomethyl-5-aminobenzamide linking group.

[5] = tested on: human lung adenocarcinoma A-549; assay: Antitumor efficacy, A-549 xenograft in nude mice; type: in vivo; conditions: for Inhibition of A-549 tumor growth in nude mice: 50 mg per kg per day
[6] = NIH 3T3, PDGF stimulated, head p42/Erk2 (p42 for GFB-132 to 137), read-out: (IC50) Inhibition p42/Erk2
[7] = read-out: (IC50) Inhibition p42
[8] = read-out: (IC50) Inhibition p44
[9] = 100 μM, IGFR/3T3, IGF-1 stimulated

Compound | Concentration giving complete block of PDGF-BB stimulated receptor tyrosine phosphorylation [1] | IC50 ([1]; read-out: IC50 of inhibition of PDGF-BB stimulation of PDGF receptor tyrosine autophosphorylation) | Inhibition of PDGF-stimulated MAPKinase activation [2] | IC50 ([2]; NIH 3T3, FIG. 3A, read-out: IC50 PDGF-dependent activation of Erk1) | IC50 ([2]; NIH 3T3, FIG. 3A, read-out: IC50 PDGF-dependent activation of Erk2) | IC50 [2, 6] | IC50 [3, 7] | IC50 [3, 8] | % Inhibition at 100 μM p42 [4, 9] | % Inhibition at 100 μM p44 [4, 9] | IGF-1-activation of Erk1/Erk2 ([4]; concentrations as high as 100 μM) | Inhibition of A-549 tumor growth in nude mice [5] | % Tumor growth inhibition ([5]; A-549, 50 mpk, day in parentheses in cell) | IC50 ([1]; 5 min pretreatment, PDGF 10 ng/ml 10 min, read-out: (IC50) Inhibition PDGFR-Y-P) | Block of VEGF-activation of the MAPKinases Erk1 and Erk2 ([3]; FIG. 13)
CCCCOc1c2cc(C(=O)Nc3cc4cc(c3)C(=O)NCC(=O)N[C@@H](CC(=O)O)C(=O)NCC(=O)N[C@@H](Cc3ccc(O)cc3)C(=O)NC4)cc1Cc1cc(C(=O)Nc3cc4cc(c3)C(=O)NCC(=O)N[C@@H](CC(=O)O)C(=O)NCC(=O)N[C@@H](Cc3ccc(O)cc3)C(=O)NC4)cc(c1OCCCC)Cc1cc(C(=O)Nc3cc4cc(c3)C(=O)NCC(=O)N[C@@H](CC(=O)O)C(=O)NCC(=O)N[C@@H](Cc3ccc(O)cc3)C(=O)NC4)cc(c1OCCCC)Cc1cc(C(=O)Nc3cc4cc(c3)C(=O)NCC(=O)N[C@@H](CC(=O)O)C(=O)NCC(=O)N[C@@H](Cc3ccc(O)cc3)C(=O)NC4)cc(c1OCCCC)C2 [GFB-111] | 3 µM | 0.25 µM | inhibits | 0.8 µM | 1.2 µM | 2.6 µM | 10 µM | 10 µM | −18.4% | 10.7% | minimally affected | effective | 62% (30) and 53% (31) and 64% (27) | – | –
GKGK [GFB-116] | – | – | does not | – | – | 28 µM | 5 µM | 5 µM | – | 25.2% and 43.5% | – | inhibits the growth | – | 40 µM | block

From patent publication US8361970B2, “Growth factor binding molecules” (University of South Florida, priority 2000, dated 2013)
